Assay results as given in PubChem BioAssay AID1963425 (Molecular Pharmacology Branch, DTP, NCI, 2024).

Tested on: 323965-272-R-J2-PDC complex spheroid growth, % test/control
Experiment: Anticancer human tumor 323965-272-R-J2-PDC patient-derived pancreatic carcinoma cell line growth inhibition [Asc]
Details: for IC50: curve of first compound; for viability, T/C: stronger effect = lower value; active = viability on the fitted dose curve at most 10% of control; inactive = the rest
Method in brief: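 Spheroid model: tumor line + HUVEC + hMSC. Single agents and combinations; top conc. at/near clinical Cmax (10 microM if undetermined), half-log dilutions. DMSO stocks at 800-fold test concentration.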
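Note: compound exposure lasted 7 days starting three days after spheroid seeding.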
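Throughout, for viability, T/C: 100% = DMSO vehicle control wells with viability set relative to vehicle.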

C#Cc1c(F)ccc2cc(O)cc(-c3ncc4c(N5CC6CCC(C5)N6)nc(OCC56CCCN5CC(F)C6)nc4c3F)c12 (centres undefined) + Cc1c(S(C)(=O)=O)c(-c2cc(F)cc(N3CCN(c4ccc(NS(=O)(=O)c5ccc(NC(CCN6CCC(C(=O)OCCCP(=O)(O)O)CC6)CSc6ccccc6)c(S(=O)(=O)C(F)(F)F)c5)cc4)CC3)c2)c(-c2ccc(Cl)cc2)n1C(C)C
6920 nM: IC50 (second compound 1 µM)
8150 nM: IC50 (second compound 0.316 µM)
inactive: viability, T/C (second compound 0.0316 µM, first compound 0.0316 µM) 99.9% | viability, T/C (second compound 0.0316 µM, first compound 0.1 µM) 98.2% | viability, T/C (second compound 0.0316 µM, first compound 0.316 µM) 109% | viability, T/C (second compound 0.0316 µM, first compound 1 µM) 108% | viability, T/C (second compound 0.0316 µM, first compound 3.16 µM) 79.4% | viability, T/C (second compound 0.0316 µM, first compound 10 µM) 58.2% | viability, T/C (second compound 0.1 µM, first compound 0.0316 µM) 100% | viability, T/C (second compound 0.1 µM, first compound 0.1 µM) 111% | viability, T/C (second compound 0.1 µM, first compound 0.316 µM) 93.2% | viability, T/C (second compound 0.1 µM, first compound 1 µM) 93.2% | viability, T/C (second compound 0.1 µM, first compound 3.16 µM) 75.7% | viability, T/C (second compound 0.1 µM, first compound 10 µM) 51.4% | viability, T/C (second compound 0.316 µM, first compound 0.0316 µM) 97.8% | viability, T/C (second compound 0.316 µM, first compound 0.1 µM) 99.1% | viability, T/C (second compound 0.316 µM, first compound 0.316 µM) 98.2% | viability, T/C (second compound 0.316 µM, first compound 1 µM) 90.6% | viability, T/C (second compound 0.316 µM, first compound 3.16 µM) 73.9% | viability, T/C (second compound 0.316 µM, first compound 10 µM) 45% | viability, T/C (second compound 1 µM, first compound 0.0316 µM) 87.1% | viability, T/C (second compound 1 µM, first compound 0.1 µM) 87.9% | viability, T/C (second compound 1 µM, first compound 0.316 µM) 88.4% | viability, T/C (second compound 1 µM, first compound 1 µM) 80.8% | viability, T/C (second compound 1 µM, first compound 3.16 µM) 67.9% | viability, T/C (second compound 1 µM, first compound 10 µM) 41.5% | viability, T/C (second compound 3.16 µM, first compound 0.0316 µM) 74.6% | viability, T/C (second compound 3.16 µM, first compound 0.1 µM) 73.8% | viability, T/C (second compound 3.16 µM, first compound 0.316 µM) 80.7% | viability, T/C (second compound 3.16 µM, first compound 1 µM) 76.5% | viability, T/C (second compound 3.16 µM, first compound 3.16 µM) 56.2% | viability, T/C (second compound 3.16 µM, first compound 10 µM) 29.3% | viability, T/C (second compound 10 µM, first compound 0.0316 µM) 72% | viability, T/C (second compound 10 µM, first compound 0.1 µM) 73.6% | viability, T/C (second compound 10 µM, first compound 0.316 µM) 59.9% | viability, T/C (second compound 10 µM, first compound 1 µM) 72% | viability, T/C (second compound 10 µM, first compound 3.16 µM) 50.9% | viability, T/C (second compound 10 µM, first compound 10 µM) 24.4%
> 10000 nM: IC50 (second compound 0.0316 µM) | IC50 (second compound 0.1 µM)
4120 nM: IC50 (second compound 3.16 µM)
3590 nM: IC50 (second compound 10 µM)

Cc1nc(N2CCC3(CC2)COC(C)C3N)c(CO)nc1Sc1ccnc(N)c1Cl (centres undefined) + Cc1c(S(C)(=O)=O)c(-c2cc(F)cc(N3CCN(c4ccc(NS(=O)(=O)c5ccc(NC(CCN6CCC(C(=O)OCCCP(=O)(O)O)CC6)CSc6ccccc6)c(S(=O)(=O)C(F)(F)F)c5)cc4)CC3)c2)c(-c2ccc(Cl)cc2)n1C(C)C
1610 nM: IC50 (second compound 0.0316 µM)
281 nM: IC50 (second compound 1 µM)
809 nM: IC50 (second compound 0.316 µM)
inactive: viability, T/C (second compound 0.0316 µM, first compound 0.00949 µM) 92.9% | viability, T/C (second compound 0.0316 µM, first compound 0.03 µM) 87.9% | viability, T/C (second compound 0.0316 µM, first compound 0.0949 µM) 79.6% | viability, T/C (second compound 0.0316 µM, first compound 0.3 µM) 67.8% | viability, T/C (second compound 0.0316 µM, first compound 0.949 µM) 54.9% | viability, T/C (second compound 0.0316 µM, first compound 3 µM) 44.2% | viability, T/C (second compound 0.1 µM, first compound 0.00949 µM) 105% | viability, T/C (second compound 0.1 µM, first compound 0.03 µM) 96.2% | viability, T/C (second compound 0.1 µM, first compound 0.0949 µM) 70.6% | viability, T/C (second compound 0.1 µM, first compound 0.3 µM) 69% | viability, T/C (second compound 0.1 µM, first compound 0.949 µM) 49.1% | viability, T/C (second compound 0.1 µM, first compound 3 µM) 37.8% | viability, T/C (second compound 0.316 µM, first compound 0.00949 µM) 92.2% | viability, T/C (second compound 0.316 µM, first compound 0.03 µM) 87.2% | viability, T/C (second compound 0.316 µM, first compound 0.0949 µM) 76.1% | viability, T/C (second compound 0.316 µM, first compound 0.3 µM) 62.2% | viability, T/C (second compound 0.316 µM, first compound 0.949 µM) 48.5% | viability, T/C (second compound 0.316 µM, first compound 3 µM) 35.9% | viability, T/C (second compound 1 µM, first compound 0.00949 µM) 81% | viability, T/C (second compound 1 µM, first compound 0.03 µM) 78% | viability, T/C (second compound 1 µM, first compound 0.0949 µM) 64.8% | viability, T/C (second compound 1 µM, first compound 0.3 µM) 48.9% | viability, T/C (second compound 1 µM, first compound 0.949 µM) 36.1% | viability, T/C (second compound 1 µM, first compound 3 µM) 28.1% | viability, T/C (second compound 3.16 µM, first compound 0.00949 µM) 72.8% | viability, T/C (second compound 3.16 µM, first compound 0.03 µM) 64.3% | viability, T/C (second compound 3.16 µM, first compound 0.0949 µM) 45.8% | viability, T/C (second compound 3.16 µM, first compound 0.3 µM) 37.6% | viability, T/C (second compound 3.16 µM, first compound 0.949 µM) 29.6% | viability, T/C (second compound 3.16 µM, first compound 3 µM) 19.6% | viability, T/C (second compound 10 µM, first compound 0.00949 µM) 73.3% | viability, T/C (second compound 10 µM, first compound 0.03 µM) 59.3% | viability, T/C (second compound 10 µM, first compound 0.0949 µM) 41.7% | viability, T/C (second compound 10 µM, first compound 0.3 µM) 34.5% | viability, T/C (second compound 10 µM, first compound 0.949 µM) 23.2% | viability, T/C (second compound 10 µM, first compound 3 µM) 15%
59.2 nM: IC50 (second compound 10 µM)
85.9 nM: IC50 (second compound 3.16 µM)
981 nM: IC50 (second compound 0.1 µM)
